Data set [1] addresses Calcium/calmodulin-dependent protein kinase type II subunit alpha (Homo sapiens, UniProt Q9UQM7). As to the kind of experiment: Selectivity interaction (Upstate Kinase Profiler service (Millipore)) EUB0000056c CAMK2A. Conditions: at 1 µM.
For data set [2], the target named is Mitogen-activated protein kinase 10 (Homo sapiens, UniProt P53779). As to the kind of experiment: Selectivity interaction (Upstate Kinase Profiler service (Millipore)) EUB0000056c MAPK10. Conditions: at 1 µM.
The target of data set [3] is Cyclin-dependent kinase 4/cyclin D1 (Homo sapiens) (UniProt P11802+P24385). As to the kind of experiment: Selectivity interaction (KinomeScan (DiscoverX)) EUB0001079a CDK4. Conditions: at 1 µM. It is filed as protein-complex assay.
In data set [4] the target is Fibroblast growth factor receptor 1 (Homo sapiens, UniProt P11362). The data set is described as follows: Selectivity interaction (KinomeScan (DiscoverX)) EUB0001079a FGFR1. Conditions: at 1 µM.
Sequence of Fibroblast growth factor receptor 1 (P11362 22-822 limits assumed): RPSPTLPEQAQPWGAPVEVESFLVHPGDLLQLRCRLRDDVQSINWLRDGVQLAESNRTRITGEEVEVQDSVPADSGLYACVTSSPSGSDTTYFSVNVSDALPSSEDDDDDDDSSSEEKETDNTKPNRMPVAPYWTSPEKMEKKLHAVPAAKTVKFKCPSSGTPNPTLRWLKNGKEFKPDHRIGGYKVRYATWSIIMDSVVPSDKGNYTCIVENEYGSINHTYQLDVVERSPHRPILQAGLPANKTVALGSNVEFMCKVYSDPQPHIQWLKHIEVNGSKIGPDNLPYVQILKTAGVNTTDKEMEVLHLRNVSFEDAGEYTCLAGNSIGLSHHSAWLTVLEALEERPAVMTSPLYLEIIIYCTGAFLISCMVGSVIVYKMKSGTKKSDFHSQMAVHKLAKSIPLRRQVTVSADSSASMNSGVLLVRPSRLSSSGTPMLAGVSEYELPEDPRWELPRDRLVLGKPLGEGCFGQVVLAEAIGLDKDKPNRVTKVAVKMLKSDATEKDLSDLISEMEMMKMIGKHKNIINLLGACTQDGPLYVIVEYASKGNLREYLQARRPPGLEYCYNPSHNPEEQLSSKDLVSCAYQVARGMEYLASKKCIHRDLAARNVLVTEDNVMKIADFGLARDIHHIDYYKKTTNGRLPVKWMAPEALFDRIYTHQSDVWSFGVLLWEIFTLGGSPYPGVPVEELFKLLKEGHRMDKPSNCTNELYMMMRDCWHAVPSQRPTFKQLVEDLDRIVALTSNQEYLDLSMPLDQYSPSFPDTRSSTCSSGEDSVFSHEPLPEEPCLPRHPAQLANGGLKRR
For data set [5], the target named is Mitogen-activated protein kinase 4 (Homo sapiens) (UniProt P31152). The data set is described as follows: Selectivity interaction (KinomeScan (DiscoverX)) EUB0000092b MAPK4. To be noted: at 10 µM.
Data set [6] has as its target Tyrosine-protein kinase receptor Tie-1 (Homo sapiens) (UniProt P35590). As to the kind of experiment: Selectivity interaction (KinomeScan (DiscoverX)) EUB0000092b TIE1. Conditions: at 10 µM.
Data set [7] has as its target T1, Phosphatidylinositol 5-phosphate 4-kinase type-2 beta (Homo sapiens) (UniProt P78356).
T1 sequence (whole entry): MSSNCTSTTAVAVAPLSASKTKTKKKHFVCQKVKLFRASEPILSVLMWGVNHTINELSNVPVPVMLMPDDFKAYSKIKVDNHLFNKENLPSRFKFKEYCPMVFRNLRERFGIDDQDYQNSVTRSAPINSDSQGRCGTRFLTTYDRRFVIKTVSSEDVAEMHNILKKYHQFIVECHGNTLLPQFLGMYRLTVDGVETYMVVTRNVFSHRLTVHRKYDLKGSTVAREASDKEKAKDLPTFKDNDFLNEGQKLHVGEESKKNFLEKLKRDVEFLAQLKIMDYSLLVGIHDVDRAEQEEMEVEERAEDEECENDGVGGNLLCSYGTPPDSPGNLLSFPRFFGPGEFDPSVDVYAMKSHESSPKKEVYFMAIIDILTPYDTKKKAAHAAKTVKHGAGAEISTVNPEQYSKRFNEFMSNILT
The data set is described as follows: Selectivity interaction (KinomeScan (DiscoverX)) EUB0000092b PIP4K2B. To be noted: at 10 µM.

In data set [8] the target is Serine/threonine-protein kinase SIK2 (Homo sapiens) (UniProt Q9H0K1). As to the kind of experiment: Selectivity interaction (KinomeScan (DiscoverX)) EUB0001049a SIK2. Conditions: at 1 µM.
In data set [9] the target is T2, Myosin light chain kinase family member 4 (Homo sapiens) (UniProt Q86YV6).
T2 sequence (whole entry): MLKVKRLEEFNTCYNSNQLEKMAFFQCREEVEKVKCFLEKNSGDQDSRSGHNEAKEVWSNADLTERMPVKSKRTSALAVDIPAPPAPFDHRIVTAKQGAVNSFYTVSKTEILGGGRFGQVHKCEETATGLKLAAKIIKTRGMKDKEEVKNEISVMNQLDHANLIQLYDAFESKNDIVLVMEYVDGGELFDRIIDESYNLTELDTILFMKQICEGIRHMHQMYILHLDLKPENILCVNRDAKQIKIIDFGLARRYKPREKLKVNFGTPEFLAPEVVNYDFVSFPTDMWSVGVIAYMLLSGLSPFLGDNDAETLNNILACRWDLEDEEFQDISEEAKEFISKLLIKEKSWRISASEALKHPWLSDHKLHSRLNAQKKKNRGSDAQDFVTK
As to the kind of experiment: Selectivity interaction (KinomeScan (DiscoverX)) EUB0001049a MYLK4. To be noted: at 1 µM.

A further data set deals with KCNE1 (Homo sapiens, UniProt P15382). The data set is described as follows: Selectivity interaction (Panel of kinases, GPCRs, ion channels and transporters (enzymatic assay)) EUB0000223bCl KCNE1.
Data set [10] addresses Homeodomain-interacting protein kinase 2 (Homo sapiens, UniProt Q9H2X6). The data set is described as follows: Selectivity interaction (KinomeScan (DiscoverX)) EUB0000045b HIPK2.
For data set [11], the target named is Tyrosine-protein kinase Srms (Homo sapiens) (UniProt Q9H3Y6). The data set is described as follows: Selectivity interaction (KinomeScan (DiscoverX)) EUB0000045b SRMS.
Sequence of Tyrosine-protein kinase Srms (Homo sapiens) (Q9H3Y6 whole entry): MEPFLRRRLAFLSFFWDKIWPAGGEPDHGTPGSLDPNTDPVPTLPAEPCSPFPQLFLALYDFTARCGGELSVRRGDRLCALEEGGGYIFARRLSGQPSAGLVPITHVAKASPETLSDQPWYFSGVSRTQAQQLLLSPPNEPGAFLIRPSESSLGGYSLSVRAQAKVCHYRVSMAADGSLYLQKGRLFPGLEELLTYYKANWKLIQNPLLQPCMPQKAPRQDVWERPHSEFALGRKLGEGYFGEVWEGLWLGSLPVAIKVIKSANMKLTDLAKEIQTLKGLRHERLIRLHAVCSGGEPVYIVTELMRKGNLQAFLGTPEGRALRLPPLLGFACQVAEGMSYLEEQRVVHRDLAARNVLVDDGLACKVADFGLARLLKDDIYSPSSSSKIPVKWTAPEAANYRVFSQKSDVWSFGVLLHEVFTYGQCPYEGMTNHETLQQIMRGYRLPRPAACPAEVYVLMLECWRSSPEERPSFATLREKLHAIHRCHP
The target in data set [12] is Dual specificity protein kinase CLK1 (Homo sapiens, UniProt P49759). The data set is described as follows: Selectivity interaction (KinomeScan (DiscoverX)) EUB0000666a CLK1. Conditions: at 10 µM.
The target of data set [13] is T3, Protein kinase C epsilon type (Homo sapiens) (UniProt Q02156).
T3 sequence (whole entry): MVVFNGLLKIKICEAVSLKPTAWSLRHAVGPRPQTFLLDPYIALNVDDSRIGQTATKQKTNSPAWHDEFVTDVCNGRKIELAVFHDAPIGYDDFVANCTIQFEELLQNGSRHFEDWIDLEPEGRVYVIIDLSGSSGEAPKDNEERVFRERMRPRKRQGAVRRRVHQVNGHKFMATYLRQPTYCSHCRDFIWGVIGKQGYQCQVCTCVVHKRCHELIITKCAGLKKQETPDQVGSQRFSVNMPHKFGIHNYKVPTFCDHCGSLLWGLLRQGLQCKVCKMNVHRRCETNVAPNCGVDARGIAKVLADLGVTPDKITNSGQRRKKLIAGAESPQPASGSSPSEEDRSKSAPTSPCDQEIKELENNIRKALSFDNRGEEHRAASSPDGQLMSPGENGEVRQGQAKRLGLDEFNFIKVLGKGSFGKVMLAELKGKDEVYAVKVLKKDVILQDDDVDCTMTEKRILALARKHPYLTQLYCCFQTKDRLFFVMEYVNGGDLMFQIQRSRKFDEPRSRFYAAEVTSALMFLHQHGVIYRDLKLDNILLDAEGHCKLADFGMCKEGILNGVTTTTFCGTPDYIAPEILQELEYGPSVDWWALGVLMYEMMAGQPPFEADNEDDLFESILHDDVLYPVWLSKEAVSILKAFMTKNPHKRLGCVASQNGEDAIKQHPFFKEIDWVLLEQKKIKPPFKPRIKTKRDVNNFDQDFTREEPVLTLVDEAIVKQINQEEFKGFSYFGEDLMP
The data set is described as follows: Selectivity interaction (Kinase panel (Z-LYTE Assay)) EUB0001632a PRKCE. Conditions: at 10 µM.

In data set [14] the target is Tyrosine-protein kinase CSK (Homo sapiens) (UniProt P41240). To be noted: at 10 µM.
Data set [15] has as its target Serine/threonine-protein kinase 38-like (Homo sapiens) (UniProt Q9Y2H1). As to the kind of experiment: Selectivity interaction (ActivX KiNativ screen (ex vivo kinase selectivity in human PBMCs)) EUB0001619a STK38L. It is filed as cell-based. Conditions: PBMC, at 1 µM.
The target in data set [16] is Vascular endothelial growth factor receptor 1 (Homo sapiens) (UniProt P17948). As to the kind of experiment: Selectivity interaction (KinomeScan (DiscoverX)) EUB0001619a FLT1. To be noted: at 1 µM.
Data set [17] has as its target Tyrosine-protein kinase SYK (Homo sapiens, UniProt P43405). The data set is described as follows: Selectivity interaction (ActivX KiNativ screen (ex vivo kinase selectivity in human PBMCs)) EUB0001619a SYK. It counts as cell-based. Conditions: PBMC, at 1 µM.
Data set [18] has as its target Cyclin-dependent kinase 16 (Homo sapiens) (UniProt Q00536). As to the kind of experiment: Selectivity interaction (KinomeScan (DiscoverX)) EUB0000618a CDK16. To be noted: at 10 µM.

Sequence of Homeodomain-interacting protein kinase 2 (Q9H2X6 whole entry, looked up): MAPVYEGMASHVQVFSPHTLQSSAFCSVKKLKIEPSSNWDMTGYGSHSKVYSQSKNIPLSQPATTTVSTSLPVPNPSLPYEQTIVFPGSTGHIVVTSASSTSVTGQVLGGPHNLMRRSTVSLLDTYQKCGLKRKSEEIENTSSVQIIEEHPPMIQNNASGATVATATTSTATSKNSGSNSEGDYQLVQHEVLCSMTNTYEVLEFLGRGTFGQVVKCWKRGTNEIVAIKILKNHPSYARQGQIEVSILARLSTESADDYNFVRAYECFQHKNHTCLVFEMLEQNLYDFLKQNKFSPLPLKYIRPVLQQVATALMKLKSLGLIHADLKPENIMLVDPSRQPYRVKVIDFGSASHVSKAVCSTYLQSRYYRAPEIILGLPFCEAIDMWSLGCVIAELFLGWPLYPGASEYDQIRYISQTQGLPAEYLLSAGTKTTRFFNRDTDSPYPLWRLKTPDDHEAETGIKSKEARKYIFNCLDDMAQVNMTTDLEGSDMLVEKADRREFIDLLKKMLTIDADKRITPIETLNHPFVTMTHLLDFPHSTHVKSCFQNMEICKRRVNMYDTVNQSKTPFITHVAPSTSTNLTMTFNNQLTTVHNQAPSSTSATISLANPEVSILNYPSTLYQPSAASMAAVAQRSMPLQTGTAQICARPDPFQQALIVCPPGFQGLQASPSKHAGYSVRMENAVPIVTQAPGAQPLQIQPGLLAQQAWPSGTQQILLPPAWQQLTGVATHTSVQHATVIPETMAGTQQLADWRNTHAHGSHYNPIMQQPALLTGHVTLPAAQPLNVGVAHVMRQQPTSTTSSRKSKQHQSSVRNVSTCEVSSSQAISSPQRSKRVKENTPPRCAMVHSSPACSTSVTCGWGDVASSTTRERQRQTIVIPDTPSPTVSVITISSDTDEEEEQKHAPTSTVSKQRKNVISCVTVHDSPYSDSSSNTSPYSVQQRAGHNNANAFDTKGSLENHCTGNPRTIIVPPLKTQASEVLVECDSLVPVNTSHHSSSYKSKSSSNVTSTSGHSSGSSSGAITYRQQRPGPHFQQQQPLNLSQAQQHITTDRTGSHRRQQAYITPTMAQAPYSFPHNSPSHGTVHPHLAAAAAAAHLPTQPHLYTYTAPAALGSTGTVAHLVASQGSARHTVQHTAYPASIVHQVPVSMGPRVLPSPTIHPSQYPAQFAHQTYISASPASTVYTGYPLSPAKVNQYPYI
Sequence of Serine/threonine-protein kinase 38-like (Homo sapiens) (Q9Y2H1 2-464 limits assumed): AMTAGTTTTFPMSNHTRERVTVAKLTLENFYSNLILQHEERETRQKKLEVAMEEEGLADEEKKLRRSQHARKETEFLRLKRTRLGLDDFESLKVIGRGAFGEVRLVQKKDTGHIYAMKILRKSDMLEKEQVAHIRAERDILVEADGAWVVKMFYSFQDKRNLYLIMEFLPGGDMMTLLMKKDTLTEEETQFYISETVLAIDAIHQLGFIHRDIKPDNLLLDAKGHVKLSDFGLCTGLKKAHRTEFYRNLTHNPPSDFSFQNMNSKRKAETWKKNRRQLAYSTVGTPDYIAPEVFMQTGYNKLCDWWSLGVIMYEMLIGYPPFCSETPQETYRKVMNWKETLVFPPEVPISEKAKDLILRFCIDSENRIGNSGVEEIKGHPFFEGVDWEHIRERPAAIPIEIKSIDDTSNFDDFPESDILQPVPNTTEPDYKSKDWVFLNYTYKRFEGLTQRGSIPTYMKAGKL
Sequence of Calcium/calmodulin-dependent protein kinase type II subunit alpha (Q9UQM7 whole entry): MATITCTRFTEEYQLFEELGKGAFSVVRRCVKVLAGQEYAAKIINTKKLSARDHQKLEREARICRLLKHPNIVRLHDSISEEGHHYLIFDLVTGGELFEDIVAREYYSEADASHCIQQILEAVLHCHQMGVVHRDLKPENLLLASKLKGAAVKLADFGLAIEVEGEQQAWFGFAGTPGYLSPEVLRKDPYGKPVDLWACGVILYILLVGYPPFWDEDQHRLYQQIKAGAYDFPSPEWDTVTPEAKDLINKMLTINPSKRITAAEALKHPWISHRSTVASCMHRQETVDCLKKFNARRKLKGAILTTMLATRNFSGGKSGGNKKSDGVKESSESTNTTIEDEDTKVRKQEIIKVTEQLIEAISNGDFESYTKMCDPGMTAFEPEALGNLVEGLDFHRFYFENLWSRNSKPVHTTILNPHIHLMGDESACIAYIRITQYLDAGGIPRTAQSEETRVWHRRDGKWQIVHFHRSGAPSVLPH
Sequence of Tyrosine-protein kinase receptor Tie-1 (Homo sapiens) (P35590 whole entry): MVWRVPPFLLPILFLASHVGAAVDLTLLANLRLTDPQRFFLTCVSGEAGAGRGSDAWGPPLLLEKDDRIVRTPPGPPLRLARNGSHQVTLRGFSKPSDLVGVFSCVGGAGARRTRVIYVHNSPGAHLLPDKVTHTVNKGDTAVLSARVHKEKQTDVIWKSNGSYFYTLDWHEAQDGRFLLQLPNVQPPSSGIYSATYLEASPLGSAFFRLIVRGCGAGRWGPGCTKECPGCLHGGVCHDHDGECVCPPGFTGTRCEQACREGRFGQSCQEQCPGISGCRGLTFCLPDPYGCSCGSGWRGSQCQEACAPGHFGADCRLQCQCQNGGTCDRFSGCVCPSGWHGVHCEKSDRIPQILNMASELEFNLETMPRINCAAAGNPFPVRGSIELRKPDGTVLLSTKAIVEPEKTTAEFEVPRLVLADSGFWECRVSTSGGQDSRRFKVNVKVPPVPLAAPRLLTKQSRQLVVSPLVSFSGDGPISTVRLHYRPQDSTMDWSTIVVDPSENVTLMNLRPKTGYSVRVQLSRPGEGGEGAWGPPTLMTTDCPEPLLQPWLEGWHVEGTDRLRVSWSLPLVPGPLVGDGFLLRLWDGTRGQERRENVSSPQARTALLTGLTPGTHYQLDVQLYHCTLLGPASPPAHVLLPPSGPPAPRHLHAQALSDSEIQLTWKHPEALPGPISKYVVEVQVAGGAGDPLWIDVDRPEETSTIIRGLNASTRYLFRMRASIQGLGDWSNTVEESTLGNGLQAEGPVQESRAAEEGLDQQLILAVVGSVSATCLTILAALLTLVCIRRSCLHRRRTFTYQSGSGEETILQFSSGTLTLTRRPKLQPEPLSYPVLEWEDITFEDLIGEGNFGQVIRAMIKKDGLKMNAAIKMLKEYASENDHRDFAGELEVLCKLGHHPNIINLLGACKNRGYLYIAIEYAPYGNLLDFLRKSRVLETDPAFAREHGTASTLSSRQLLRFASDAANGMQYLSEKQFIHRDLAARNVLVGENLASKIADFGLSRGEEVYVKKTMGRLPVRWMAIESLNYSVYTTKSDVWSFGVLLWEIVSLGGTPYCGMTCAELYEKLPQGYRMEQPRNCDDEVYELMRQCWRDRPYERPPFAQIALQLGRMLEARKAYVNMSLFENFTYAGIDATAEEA

For `Cc1ccc(-c2ccc3c(ccc4sc5c(c43)NC[C@@H](C)NC5=O)n2)cn1`, the % of inhibition in [1] was 87%; in data set [2], -5%.

Turning to `Nc1cnc(N2CCc3cc(S(=O)(=O)Nc4c(F)cc(Cl)cc4F)cc(N4CCCC4=O)c32)nc1` [TP-020n], the % of control was 97% in data set [3] and 88% in [4].

As to `CCC(=O)N1CCN(c2ccc(-n3c(=O)ccc4cnc5ccc(-c6cnc7ccccc7c6)cc5c43)cc2C(F)(F)F)CC1`, the % of control in data set [5] turned out to be 80%; in data set [6], 100%; in data set [7], 100%.

Consider `COc1cc(Nc2nc(C)cc(-c3cnn4nc(OC)ccc34)n2)cc(C(F)(F)F)c1`, for which the % of control in data set [8] and in data set [9] was 100% throughout.

The compound `COc1cc(C(=O)N2CC[C@@H](O)[C@@H](N)C2)cc2nc(-c3cc4ccccc4n3CC3CC3)n(C)c12` showed an XC50 on KCNE1 of more than 25.1 µM.

Take `C=CC(=O)Nc1cc(-n2c(=O)ccc3cnc4ccc(-c5ccc(NS(C)(=O)=O)cc5)cc4c32)ccc1C`: the % of control in data set [10] (at 1 µM), in data set [10] (at 10 µM), in [11] (at 1 µM) and in data set [11] (at 10 µM) was 100% throughout.

Regarding `O=C(NOC[C@H](O)CO)c1ccc(F)c(F)c1Nc1ccc(I)cc1F`, the % of control in data set [12] stood at 95%.

Turning to `Cn1cc(-n2cnc3c(NCc4nc5cc(Cl)c(Cl)cc5[nH]4)nc(N4CCOCC4)nc32)cn1`, the % of control in data set [13] was -8.31%.

For the compound `COCC(=O)NC/C=C/c1ccc2ncnc(Nc3ccc(Oc4ccc(C)nc4)c(C)c3)c2c1` [CP-724714], the % of control in data set [14] was 59%.

For the compound `N#Cc1cccc(-c2c[nH]c3ncnc(N4CCOCC4)c23)c1`, the % of inhibition is 3% in [15] and -12% in data set [17]. The % of control in data set [16] was found to be 73%.

Take `O[C@H]1CC[C@H](Nc2ncc3nc(Nc4c(F)cc(F)cc4F)n([C@H]4CCOC4)c3n2)CC1`: the % of control in data set [18] was 100%.

Source of the values: ChEMBL document CHEMBL5465560, “Selectivity Literature for EUbOPEN Chemogenomic Library” (2024).
